Experimental data as given in patent US20050197350A1, “Novel quinoline, tetrahydroquinazoline, and pyrimidine derivatives and methods of treatment related to the use thereof” (TAISHO PHARMACEUTICAL CO., LTD., priority 2003, published 2005).

The compounds below were run on MCH receptors (assay: MCH receptor activity class (method not given)). Details: class by percent of control at 10^−7 M or IC50.

Row | SMILES | class
1 | Cc1cnc(N[C@H]2CC[C@@H](NC(=O)c3ccc(F)c(F)c3F)CC2)nc1N(C)C [compound 2903, N-(cis-4-{[4-(dimethylamino)-5-methylpyrimidin-2-yl]amino}cyclohexyl)-2,3,4-trifluorobenzamide] | 1 (Class 1: The value of percent of control at 10^−7 M was less than 40% or the value of IC50 was less than 50 nM.)
2 | Cc1cnc(N[C@H]2CC[C@@H](NC(=O)c3ccccc3)CC2)nc1N(C)C [compound 2904, N-(cis-4-{[4-(dimethylamino)-5-methylpyrimidin-2-yl]amino}cyclohexyl)benzamide] | 2 (Class 2: The value of percent of control at 10^−7 M was from 40% to 60% or the value of IC′50 was from 50 nM to 200 nM.)
3 | Cc1cnc(N[C@H]2CC[C@@H](NC(=O)c3ccc(C(C)(C)C)cc3)CC2)nc1N(C)C [compound 2905] | 1 (Class 1: The value of percent of control at 10^−7 M was less than 40% or the value of IC50 was less than 50 nM.)
4 | Cc1cnc(N[C@H]2CC[C@@H](NC(=O)c3ccc(Cl)cc3)CC2)nc1N(C)C [compound 2907, 4-chloro-N-(cis-4-{[4-(dimethylamino)-5-methylpyrimidin-2-yl]amino}cyclohexyl)benzamide] | 1 (Class 1: The value of percent of control at 10^−7 M was less than 40% or the value of IC50 was less than 50 nM.)
5 | Cc1cnc(N[C@H]2CC[C@@H](NC(=O)c3cccc(C#N)c3)CC2)nc1N(C)C [compound 2908, 3-cyano-N-(cis-4-{[4-(dimethylamino)-5-methylpyrimidin-2-yl]amino}cyclohexyl)benzamide] | 1 (Class 1: The value of percent of control at 10^−7 M was less than 40% or the value of IC50 was less than 50 nM.)
6 | Cc1cnc(N[C@H]2CC[C@@H](NC(=O)c3ccc(C#N)cc3)CC2)nc1N(C)C [compound 2909, 4-cyano-N-(cis-4-{[4-(dimethylamino)-5-methylpyrimidin-2-yl]amino}cyclohexyl)benzamide] | 1 (Class 1: The value of percent of control at 10^−7 M was less than 40% or the value of IC50 was less than 50 nM.)
7 | COc1ccccc1C(=O)N[C@H]1CC[C@@H](Nc2ncc(C)c(N(C)C)n2)CC1 [compound 2910] | 3 (Class 3 The value of percent of control at 10^−7 M was more than 60% or the value of IC50 was more than 200 nM.)
8 | Cc1cnc(N[C@H]2CC[C@@H](NC(=O)c3ccc(Br)cc3)CC2)nc1N(C)C [compound 2911, 4-bromo-N-(cis-4-{[4-(dimethylamino)-5-methylpyrimidin-2-yl]amino}cyclohexyl)benzamide] | 1 (Class 1: The value of percent of control at 10^−7 M was less than 40% or the value of IC50 was less than 50 nM.)
9 | Cc1cnc(N[C@H]2CC[C@@H](NC(=O)c3ccc(C(F)(F)F)cc3)CC2)nc1N(C)C [compound 2912, N-(cis-4-{[4-(dimethylamino)-5-methylpyrimidin-2-yl]amino}cyclohexyl)-4-(trifluoromethyl)benzamide] | 1 (Class 1: The value of percent of control at 10^−7 M was less than 40% or the value of IC50 was less than 50 nM.)
10 | COc1ccc(C(=O)N[C@H]2CC[C@@H](Nc3ncc(C)c(N(C)C)n3)CC2)cc1 [compound 2913] | 3 (Class 3 The value of percent of control at 10^−7 M was more than 60% or the value of IC50 was more than 200 nM.)
11 | Cc1cnc(N[C@H]2CC[C@@H](NC(=O)c3ccccc3Br)CC2)nc1N(C)C [compound 2914] | 3 (Class 3 The value of percent of control at 10^−7 M was more than 60% or the value of IC50 was more than 200 nM.)
12 | Cc1cnc(N[C@H]2CC[C@@H](NC(=O)c3ccccc3Cl)CC2)nc1N(C)C [compound 2915] | 3 (Class 3 The value of percent of control at 10^−7 M was more than 60% or the value of IC50 was more than 200 nM.)
13 | Cc1cnc(N[C@H]2CC[C@@H](NC(=O)c3ccccc3F)CC2)nc1N(C)C [compound 2916] | 3 (Class 3 The value of percent of control at 10^−7 M was more than 60% or the value of IC50 was more than 200 nM.)
14 | Cc1ccccc1C(=O)N[C@H]1CC[C@@H](Nc2ncc(C)c(N(C)C)n2)CC1 [compound 2917] | 3 (Class 3 The value of percent of control at 10^−7 M was more than 60% or the value of IC50 was more than 200 nM.)
15 | Cc1cnc(N[C@H]2CC[C@@H](NC(=O)c3ccccc3C(F)(F)F)CC2)nc1N(C)C [compound 2918] | 3 (Class 3 The value of percent of control at 10^−7 M was more than 60% or the value of IC50 was more than 200 nM.)
16 | Cc1cnc(N[C@H]2CC[C@@H](NC(=O)c3ccc(F)c(C(F)(F)F)c3)CC2)nc1N(C)C [compound 2919] | 1 (Class 1: The value of percent of control at 10^−7 M was less than 40% or the value of IC50 was less than 50 nM.)
17 | Cc1cc(C(=O)N[C@H]2CC[C@@H](Nc3ncc(C)c(N(C)C)n3)CC2)ccc1Br [compound 2920, 4-bromo-N-(cis-4-{[4-(dimethylamino)-5-methylpyrimidin-2-yl]amino}cyclohexyl)-3-methylbenzamide] | 1 (Class 1: The value of percent of control at 10^−7 M was less than 40% or the value of IC50 was less than 50 nM.)
18 | CCOc1ccc(C(=O)N[C@H]2CC[C@@H](Nc3ncc(C)c(N(C)C)n3)CC2)cc1 [compound 2921, N-(cis-4-{[4-(dimethylamino)-5-methylpyrimidin-2-yl]amino}cyclohexyl)-4-ethoxybenzamide] | 2 (Class 2: The value of percent of control at 10^−7 M was from 40% to 60% or the value of IC′50 was from 50 nM to 200 nM.)
19 | Cc1cc(C(=O)N[C@H]2CC[C@@H](Nc3ncc(C)c(N(C)C)n3)CC2)ccc1F [compound 2923, N-(cis-4-{[4-(dimethylamino)-5-methylpyrimidin-2-yl]amino}cyclohexyl)-4-fluoro-3-methylbenzamide] | 1 (Class 1: The value of percent of control at 10^−7 M was less than 40% or the value of IC50 was less than 50 nM.)
20 | Cc1ccc(C(=O)N[C@H]2CC[C@@H](Nc3ncc(C)c(N(C)C)n3)CC2)cc1F [compound 2924, N-(cis-4-{[4-(dimethylamino)-5-methylpyrimidin-2-yl]amino}cyclohexyl)-3-fluoro-4-methylbenzamide] | 1 (Class 1: The value of percent of control at 10^−7 M was less than 40% or the value of IC50 was less than 50 nM.)
21 | CCc1cccc(C(=O)N[C@H]2CC[C@@H](Nc3ncc(C)c(N(C)C)n3)CC2)c1 [compound 2925, N-(cis-4-{[4-(dimethylamino)-5-methylpyrimidin-2-yl]amino}cyclohexyl)-3-ethylbenzamide] | 1 (Class 1: The value of percent of control at 10^−7 M was less than 40% or the value of IC50 was less than 50 nM.)
22 | Cc1cnc(N[C@H]2CC[C@@H](NC(=O)c3ccc4c(c3)OC(F)(F)O4)CC2)nc1N(C)C [compound 2926, N-(cis-4-{[4-(dimethylamino)-5-methylpyrimidin-2-yl]amino}cyclohexyl)-2,2-difluoro-1,3-benzodioxole-5-carboxamide] | 1 (Class 1: The value of percent of control at 10^−7 M was less than 40% or the value of IC50 was less than 50 nM.)
23 | CCOc1cccc(C(=O)N[C@H]2CC[C@@H](Nc3ncc(C)c(N(C)C)n3)CC2)c1 [compound 2927, N-(cis-4-{[4-(dimethylamino)-5-methylpyrimidin-2-yl]amino}cyclohexyl)-3-ethoxybenzamide] | 2 (Class 2: The value of percent of control at 10^−7 M was from 40% to 60% or the value of IC′50 was from 50 nM to 200 nM.)
